Data: the kinase profiling compilation of Christmann-Franck et al. (2016)

What was measured:
Assay in all cases: KINOMEscan competition binding
Settings in all cases: compound 10.0 µM
[1] = target: FGFR1 (human) (UniProt P11362)
[2] = target: PRKAA2 (human) (UniProt P54646)
[3] = target: RPS6KA1 KD1 (human) (UniProt Q15418)
[4] = target: CIT (human) (UniProt O14578)
[5] = target: ACVR1B (human) (UniProt P36896)
[6] = target: CDK7 (human) (UniProt P50613)
[7] = target: SRPK1 (human) (UniProt Q96SB4)
[8] = target: PAK4 (human) (UniProt O96013)
[9] = target: CASK (human) (UniProt O14936)
Sequence of CASK (human) (O14936 whole entry, looked up): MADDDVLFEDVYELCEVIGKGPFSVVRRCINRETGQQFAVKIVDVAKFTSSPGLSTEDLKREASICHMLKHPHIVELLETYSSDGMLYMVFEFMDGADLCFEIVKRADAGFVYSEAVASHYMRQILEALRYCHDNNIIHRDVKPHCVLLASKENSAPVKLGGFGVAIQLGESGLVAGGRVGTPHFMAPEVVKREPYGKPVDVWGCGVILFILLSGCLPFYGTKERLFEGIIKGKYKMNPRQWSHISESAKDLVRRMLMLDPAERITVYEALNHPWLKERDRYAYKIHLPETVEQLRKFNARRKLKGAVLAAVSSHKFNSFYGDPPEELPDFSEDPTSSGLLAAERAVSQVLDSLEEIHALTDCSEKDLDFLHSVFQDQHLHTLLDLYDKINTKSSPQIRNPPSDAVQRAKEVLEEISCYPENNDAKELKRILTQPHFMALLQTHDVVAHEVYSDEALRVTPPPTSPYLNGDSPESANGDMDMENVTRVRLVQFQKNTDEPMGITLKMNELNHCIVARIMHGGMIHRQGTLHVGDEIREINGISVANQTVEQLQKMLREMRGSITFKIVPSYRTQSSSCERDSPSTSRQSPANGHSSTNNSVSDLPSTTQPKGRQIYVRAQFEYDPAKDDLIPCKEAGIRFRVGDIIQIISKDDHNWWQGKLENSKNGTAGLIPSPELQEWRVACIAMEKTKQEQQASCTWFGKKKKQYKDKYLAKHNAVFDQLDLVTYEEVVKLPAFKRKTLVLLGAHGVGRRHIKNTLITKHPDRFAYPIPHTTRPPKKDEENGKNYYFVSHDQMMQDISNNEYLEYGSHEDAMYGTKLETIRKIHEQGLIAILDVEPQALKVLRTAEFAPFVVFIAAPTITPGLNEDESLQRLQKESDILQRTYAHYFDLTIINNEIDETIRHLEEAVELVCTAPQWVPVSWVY

[10] = target: MAPKAPK2 (human) (UniProt P49137)
[11] = target: EPHA4 (human) (UniProt P54764)
Sequence of EPHA4 (human) (P54764 whole entry, looked up): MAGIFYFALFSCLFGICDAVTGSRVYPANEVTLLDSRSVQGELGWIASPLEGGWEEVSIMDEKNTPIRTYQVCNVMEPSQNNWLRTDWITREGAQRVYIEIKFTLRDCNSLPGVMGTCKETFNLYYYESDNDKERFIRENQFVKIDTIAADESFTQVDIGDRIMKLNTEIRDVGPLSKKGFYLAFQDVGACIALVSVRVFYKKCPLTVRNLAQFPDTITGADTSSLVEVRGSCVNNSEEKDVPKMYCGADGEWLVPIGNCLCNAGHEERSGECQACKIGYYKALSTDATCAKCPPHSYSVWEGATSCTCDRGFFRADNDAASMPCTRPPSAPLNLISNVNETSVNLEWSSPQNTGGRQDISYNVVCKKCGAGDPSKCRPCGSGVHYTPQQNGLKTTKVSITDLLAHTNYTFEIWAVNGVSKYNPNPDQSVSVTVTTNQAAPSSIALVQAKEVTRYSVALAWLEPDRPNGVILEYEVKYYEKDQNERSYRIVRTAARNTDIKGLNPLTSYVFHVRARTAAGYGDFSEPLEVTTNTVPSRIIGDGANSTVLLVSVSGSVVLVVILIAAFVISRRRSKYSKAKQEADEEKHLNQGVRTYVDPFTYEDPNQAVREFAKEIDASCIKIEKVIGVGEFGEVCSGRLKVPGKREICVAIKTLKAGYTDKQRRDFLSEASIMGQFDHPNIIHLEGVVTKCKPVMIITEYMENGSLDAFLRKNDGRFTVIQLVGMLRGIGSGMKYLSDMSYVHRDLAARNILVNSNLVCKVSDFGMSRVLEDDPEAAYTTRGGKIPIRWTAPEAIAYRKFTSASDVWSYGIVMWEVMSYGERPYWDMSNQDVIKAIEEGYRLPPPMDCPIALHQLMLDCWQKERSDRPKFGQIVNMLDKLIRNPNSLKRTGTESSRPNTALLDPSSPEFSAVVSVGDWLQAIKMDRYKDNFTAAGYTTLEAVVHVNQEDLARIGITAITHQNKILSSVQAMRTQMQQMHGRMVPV

[12] = target: PRKX (human) (UniProt P51817)
[13] = target: RPS6KA5 KD1 (human) (UniProt O75582)
[14] = target: JAK1 JH1 catalytic (human) (UniProt P23458)
[15] = target: ACVR2A (human) (UniProt P27037)
Sequence of ACVR2A (human) (P27037 whole entry, looked up): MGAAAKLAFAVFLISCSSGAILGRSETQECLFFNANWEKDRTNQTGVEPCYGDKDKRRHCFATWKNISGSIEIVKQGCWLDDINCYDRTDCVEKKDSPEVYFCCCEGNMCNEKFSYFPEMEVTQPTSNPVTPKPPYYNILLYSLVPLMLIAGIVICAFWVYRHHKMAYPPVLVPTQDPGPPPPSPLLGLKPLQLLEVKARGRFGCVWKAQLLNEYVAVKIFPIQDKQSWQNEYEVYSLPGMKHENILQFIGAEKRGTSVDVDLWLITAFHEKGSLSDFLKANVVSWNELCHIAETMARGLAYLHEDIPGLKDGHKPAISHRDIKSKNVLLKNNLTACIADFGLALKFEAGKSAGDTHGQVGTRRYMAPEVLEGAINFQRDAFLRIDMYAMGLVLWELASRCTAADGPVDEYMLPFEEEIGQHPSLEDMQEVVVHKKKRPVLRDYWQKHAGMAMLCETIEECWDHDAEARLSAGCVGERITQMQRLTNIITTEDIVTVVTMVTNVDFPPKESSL

[16] = target: NEK4 (human) (UniProt P51957)
[17] = target: SRMS (human) (UniProt Q9H3Y6)
[18] = test system: LRRK2 (human), Q5S007 [G2019S]
[19] = target: GRK1 (human) (UniProt Q15835)
[20] = target: AKT2 (human) (UniProt P31751)
[21] = target: PRKCQ (human) (UniProt Q04759)
[22] = target: PRKACA (human) (UniProt P17612)
[23] = target: MAP4K1 (human) (UniProt Q92918)
Sequence of MAP4K1 (human) (Q92918 whole entry, looked up): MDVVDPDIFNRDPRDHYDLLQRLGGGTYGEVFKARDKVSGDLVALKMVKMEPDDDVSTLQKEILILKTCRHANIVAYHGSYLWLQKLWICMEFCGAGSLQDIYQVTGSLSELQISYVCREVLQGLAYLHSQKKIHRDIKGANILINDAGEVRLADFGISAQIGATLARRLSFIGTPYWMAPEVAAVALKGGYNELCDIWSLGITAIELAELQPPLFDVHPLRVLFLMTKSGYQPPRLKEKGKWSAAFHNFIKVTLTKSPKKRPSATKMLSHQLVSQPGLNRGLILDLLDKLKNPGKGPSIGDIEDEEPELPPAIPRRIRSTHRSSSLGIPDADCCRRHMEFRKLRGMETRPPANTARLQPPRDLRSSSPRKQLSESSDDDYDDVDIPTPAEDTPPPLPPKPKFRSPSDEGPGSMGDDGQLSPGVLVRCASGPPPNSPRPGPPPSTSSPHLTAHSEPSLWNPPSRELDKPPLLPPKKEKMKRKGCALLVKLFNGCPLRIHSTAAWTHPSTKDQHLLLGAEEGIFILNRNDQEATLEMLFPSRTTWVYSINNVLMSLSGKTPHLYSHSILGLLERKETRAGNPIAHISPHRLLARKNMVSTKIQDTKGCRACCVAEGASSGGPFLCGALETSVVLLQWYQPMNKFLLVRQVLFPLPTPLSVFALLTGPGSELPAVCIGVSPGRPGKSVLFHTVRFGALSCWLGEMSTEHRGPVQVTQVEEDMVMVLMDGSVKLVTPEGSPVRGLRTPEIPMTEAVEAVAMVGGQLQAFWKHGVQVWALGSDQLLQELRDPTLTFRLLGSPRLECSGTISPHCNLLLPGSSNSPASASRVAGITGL

[24] = target: MAP3K13 (human) (UniProt O43283)
[25] = target: DMPK (human) (UniProt Q09013)
[26] = target: HUNK (human) (UniProt P57058)
[27] = target: DYRK1A (human) (UniProt Q13627)
[28] = target: FYN (human) (UniProt P06241)
[29] = target: PRKD1 (human) (UniProt Q15139)
[30] = target: PIP4K2B (human) (UniProt P78356)
[31] = target: FGR (human) (UniProt P09769)
[32] = target: BMPR2 (human) (UniProt Q13873)
[33] = target: TYRO3 (human) (UniProt Q06418)
[34] = target: TXK (human) (UniProt P42681)
[35] = target: MYLK3 (human) (UniProt Q32MK0)
Sequence of MYLK3 (human) (Q32MK0 whole entry, looked up): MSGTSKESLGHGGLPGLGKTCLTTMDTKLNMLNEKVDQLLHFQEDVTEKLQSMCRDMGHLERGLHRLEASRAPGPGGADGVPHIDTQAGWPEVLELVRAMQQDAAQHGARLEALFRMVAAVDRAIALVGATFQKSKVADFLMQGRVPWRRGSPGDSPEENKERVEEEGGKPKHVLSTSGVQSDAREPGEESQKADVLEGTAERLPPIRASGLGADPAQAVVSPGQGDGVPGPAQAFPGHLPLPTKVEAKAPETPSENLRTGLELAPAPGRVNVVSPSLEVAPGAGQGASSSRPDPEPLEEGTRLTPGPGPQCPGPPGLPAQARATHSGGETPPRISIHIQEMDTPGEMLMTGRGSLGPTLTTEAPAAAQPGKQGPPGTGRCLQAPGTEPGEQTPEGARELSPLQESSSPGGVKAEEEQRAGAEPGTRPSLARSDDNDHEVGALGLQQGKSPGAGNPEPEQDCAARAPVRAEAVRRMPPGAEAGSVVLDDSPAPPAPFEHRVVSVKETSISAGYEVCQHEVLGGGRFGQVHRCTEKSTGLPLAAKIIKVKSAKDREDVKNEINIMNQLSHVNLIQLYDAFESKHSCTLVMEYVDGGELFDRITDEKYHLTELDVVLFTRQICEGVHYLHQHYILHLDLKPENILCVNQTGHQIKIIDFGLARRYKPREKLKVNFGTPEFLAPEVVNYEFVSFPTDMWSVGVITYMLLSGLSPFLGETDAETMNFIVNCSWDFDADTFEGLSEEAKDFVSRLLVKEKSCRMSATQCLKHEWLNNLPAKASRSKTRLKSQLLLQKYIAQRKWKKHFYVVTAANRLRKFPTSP

[36] = target: PHKG1 (human) (UniProt Q16816)
[37] = target: AXL (human) (UniProt P30530)
[38] = target: ACVR1 (human) (UniProt Q04771)
[39] = target: IKBKE (human) (UniProt Q14164)
[40] = test system: EGFR (human), P00533 [L858R]

Sequence of FGFR1 (human) (P11362 whole entry, looked up): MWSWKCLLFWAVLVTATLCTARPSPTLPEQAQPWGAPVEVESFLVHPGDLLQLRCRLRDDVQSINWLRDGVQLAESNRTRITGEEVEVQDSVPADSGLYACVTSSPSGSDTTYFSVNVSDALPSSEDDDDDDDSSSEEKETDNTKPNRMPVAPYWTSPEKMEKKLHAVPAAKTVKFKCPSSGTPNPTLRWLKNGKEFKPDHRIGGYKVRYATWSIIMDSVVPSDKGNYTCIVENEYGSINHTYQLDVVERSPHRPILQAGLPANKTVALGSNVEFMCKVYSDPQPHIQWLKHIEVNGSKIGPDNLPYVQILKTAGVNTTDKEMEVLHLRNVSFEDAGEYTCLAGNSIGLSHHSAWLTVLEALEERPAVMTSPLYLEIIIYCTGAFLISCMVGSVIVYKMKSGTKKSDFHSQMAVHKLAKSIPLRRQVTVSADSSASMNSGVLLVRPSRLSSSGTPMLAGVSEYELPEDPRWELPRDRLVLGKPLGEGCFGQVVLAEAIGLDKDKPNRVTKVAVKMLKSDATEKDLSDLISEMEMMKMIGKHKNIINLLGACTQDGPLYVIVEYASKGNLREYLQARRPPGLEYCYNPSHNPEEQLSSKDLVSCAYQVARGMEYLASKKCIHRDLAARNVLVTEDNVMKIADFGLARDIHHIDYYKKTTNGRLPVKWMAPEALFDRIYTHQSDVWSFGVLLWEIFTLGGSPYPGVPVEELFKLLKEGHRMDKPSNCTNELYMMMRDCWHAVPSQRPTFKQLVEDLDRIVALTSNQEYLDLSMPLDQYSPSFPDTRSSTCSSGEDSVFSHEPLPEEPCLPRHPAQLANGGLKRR

Structure (SMILES)	kinase still bound, per cent of control [1]	kinase still bound, per cent of control [2]	kinase still bound, per cent of control [3]	kinase still bound, per cent of control [4]	kinase still bound, per cent of control [5]	kinase still bound, per cent of control [6]	kinase still bound, per cent of control [7]	kinase still bound, per cent of control [8]	kinase still bound, per cent of control [9]	kinase still bound, per cent of control [10]	kinase still bound, per cent of control [11]	kinase still bound, per cent of control [12]	kinase still bound, per cent of control [13]	kinase still bound, per cent of control [14]	kinase still bound, per cent of control [15]	kinase still bound, per cent of control [16]	kinase still bound, per cent of control [17]	kinase still bound, per cent of control [18]	kinase still bound, per cent of control [19]	kinase still bound, per cent of control [20]	further results
CCc1nc(-c2cccc(C)c2)c(-c2ccnc(NC(=O)c3ccccc3)c2)s1	72%	100%	89%	0.45%	4.6%	100%	100%	86%	100%	100%	94%	100%	100%	100%	70%	100%	83%	100%	100%	80%	kinase still bound, per cent of control [21]: 100%; kinase still bound, per cent of control [22]: 85%; kinase still bound, per cent of control [23]: 86%; kinase still bound, per cent of control [24]: 100%; kinase still bound, per cent of control [25]: 92%; kinase still bound, per cent of control [26]: 15%; kinase still bound, per cent of control [27]: 69%; kinase still bound, per cent of control [28]: 45%; kinase still bound, per cent of control [29]: 65%; kinase still bound, per cent of control [30]: 93%; kinase still bound, per cent of control [31]: 52%; kinase still bound, per cent of control [32]: 90%; kinase still bound, per cent of control [33]: 83%; kinase still bound, per cent of control [34]: 75%; kinase still bound, per cent of control [35]: 93%; kinase still bound, per cent of control [36]: 100%; kinase still bound, per cent of control [37]: 80%; kinase still bound, per cent of control [38]: 9.6%; kinase still bound, per cent of control [39]: 100%
CC1=C(C(=O)Nc2cc3cn[nH]c3cc2F)C(c2ccc(C(F)(F)F)cc2)CC(=O)N1 (stereo not given)	73%	25%	72%	87%	94%	58%	100%	85%	88%	100%	78%	14%	88%	28%	88%	85%	58%	70%	78%	64%	kinase still bound, per cent of control [21]: 54%; kinase still bound, per cent of control [40]: 90%; kinase still bound, per cent of control [23]: 87%; kinase still bound, per cent of control [24]: 83%; kinase still bound, per cent of control [25]: 100%; kinase still bound, per cent of control [26]: 100%; kinase still bound, per cent of control [27]: 100%; kinase still bound, per cent of control [28]: 82%; kinase still bound, per cent of control [29]: 76%; kinase still bound, per cent of control [30]: 100%; kinase still bound, per cent of control [31]: 78%; kinase still bound, per cent of control [32]: 97%; kinase still bound, per cent of control [33]: 100%; kinase still bound, per cent of control [34]: 83%; kinase still bound, per cent of control [35]: 92%; kinase still bound, per cent of control [36]: 100%; kinase still bound, per cent of control [37]: 84%; kinase still bound, per cent of control [38]: 100%; kinase still bound, per cent of control [39]: 77%
CCN(CCO)CCCOc1ccc2c(Nc3cc(CC(=O)Nc4cccc(F)c4)[nH]n3)ncnc2c1	85%	77%	83%	27%	88%	15%	100%	100%	88%	100%	92%	66%	100%	100%	100%	40%	29%	100%	100%	90%	kinase still bound, per cent of control [21]: 100%; kinase still bound, per cent of control [22]: 100%; kinase still bound, per cent of control [23]: 76%; kinase still bound, per cent of control [24]: 100%; kinase still bound, per cent of control [25]: 93%; kinase still bound, per cent of control [26]: 94%; kinase still bound, per cent of control [27]: 100%; kinase still bound, per cent of control [29]: 72%; kinase still bound, per cent of control [30]: 100%; kinase still bound, per cent of control [31]: 82%; kinase still bound, per cent of control [33]: 100%; kinase still bound, per cent of control [34]: 100%; kinase still bound, per cent of control [35]: 98%; kinase still bound, per cent of control [36]: 35%; kinase still bound, per cent of control [37]: 1.4%; kinase still bound, per cent of control [38]: 81%; kinase still bound, per cent of control [39]: 51%
